# Measurements: patent US20040002447A1, “Induction of insulin expression” (REGENTS OF THE UNIVERSITY OF CALIFORNIA, priority 2002, published 2004)
# Legend:
# [1] = tested on: insulin gene expression in TRM-6/PDX-1/NeuroD1 cells; assay: Insulin mRNA expression by RT-PCR in monolayer TRM-6/PDX-1/NeuroD1 cells; type: cell-based, human
# Protocol: FIG. 1 illustrates induction of insulin expression resulting from treatment with trichostatin A (TSA). Insulin mRNA was analyzed by RT-PCR. RT-PCR for the housekeeping gene porphobilinogen deaminase was performed to ensure that equal amounts of cDNA were used. The experiment has been repeated three times and the figure shown here is representative.
# Monolayer cultures of TRM-6/PDX-1 also expressing the transcription factor NeuroD 1 (BETA2) express low levels of insulin gene expression.
# [2] = tested on: somatostatin gene expression in TRM-6/PDX-1 cells; assay: Somatostatin mRNA expression by RT-PCR in monolayer TRM-6/PDX-1 cells; type: cell-based, human; conditions: approximately 24 hours; for somatastatin mRNA expression (effect in words): TRM-6 cells expressing PDX-1, monolayer cultures
# Protocol: The cells were incubated with the inhibitor for approximately 24 hours and then expression of somatastatin expression was measured with RT-PCR. As little as 66 nM TSA lead to an increase in somatastatin induction, with a maximal induction at 6.6. μM of TSA.
# [3] = tested on: insulin promoter (CAT reporter) in HeLa cells; assay: Insulin promoter CAT reporter activity in HeLa cells transformed with PDX-1; type: cell-based; conditions: HeLa cells transformed with PDX-1 and insulin promoter-CAT plasmid (FIG. 2)
# Protocol: FIG. 2 is a bar graph illustrating expression of an insulin promoter in HeLa cells transformed with PDX-1. The graph illustrates differences in expression from the insulin promoter in the presence or absence of the histone deacetylase inhibitor TSA. Insulin promoter activity was determined based on expression of chloramphenicol acetyl transferase (CAT) reporter activity.
# In addition, expression of an insulin promoter in HeLa cells was tested for the effect of the histone deacetylase inhibitor TSA on insulin expression. HeLa cells were transformed with PDX-1 and a plasmid comprising a portion of the insulin promoter operably linked to the chloramphenicol acetyl transferase (CAT) reporter gene. The effect of TSA and PDX-1 on insulin expression was then tested. As FIG. 2 illustrates, cells contacted with TSA had approximately 14 times the expression of cells not contacted with TSA.
compound,measurement,setting,value
"CC(/C=C/C(=O)NO)=C\[C@@H](C)C(=O)c1ccc(N(C)C)cc1 [TSA, trichostatin A]",insulin expression (effect in words),"[1]; 3.3 μM for 24 hours, TRM-6/PDX-1/NeuroD1 monolayer, RT-PCR (FIG. 1)",greatly increases insulin expression
same,insulin gene expression in TRM-6 cells (summary statement),[1]; TRM-6 cells,induced insulin gene expression
same,concentration giving maximal somatastatin induction,[2]; TRM-6/PDX-1 monolayer,6.6 µM
same,lowest TSA concentration leading to an increase in somatastatin induction,[2]; TRM-6/PDX-1 monolayer,66 nM
same,somatastatin mRNA expression (effect in words),[2],bypassed the need for cell-cell contact to achieve high levels of somatostatin gene expression
same,somatastatin mRNA expression (effect in words),[2]; listed as trichostatin A,induced somatastatin mRNA expression
same,insulin promoter expression relative to cells not contacted with TSA,[3],approximately 14 times
